Like-named read-outs stand apart in the source and are kept apart here.
How the values were obtained:
[1] = tested on: Human umbilical vein endothelial cells (HUVEC); experiment: cells
[2] = tested on: human tumour cell line A431 (epithelial carcinoma); experiment: Tumour cell proliferation assay (methylene blue)
HUVEC = experiment: Endothelial cell migration assay
[3] = tested on: Human umbilical vein endothelial cells (HUVEC); conditions: 30 μM
[4] = tested on: VEGF induced angiogenesis; experiment: Growth factor impregnated subcutaneous chamber implant angiogenesis model in mice (VEGF); format: in vivo; conditions: highest dose tested, 100 μg/kg/day s.c.
Description: (§1) Effect of Zoledronic Acid on Angiogenesis Induced by Growth Factor Impregnated, Subcutaneous Implants in Mice
(§2) Female mice (Tiflbm:MAG ) weighing 17 to 20 g were used. They were identified via ear markings and kept in groups (6 animals per cage) under normal conditions and observed daily. Six mice were used per treatment group in each experiment. All experiments were performed at least twice.
(§3) Porous tissue chambers made of perfluoro-alkoxy-Teflon (Teflon®-PFA, 21 mm×8 mm diameter, 550 μl volume) and perforated with 80 regularly spaced 0.8 mm holes were used. Both ends were sealed with removable caps of the same material. Four to six chambers were inserted in a silicon tube (12 mm diameter). […]
(§4) Five days after implantation, animals were anaesthetized (3% isoflurane) and sacrificed using an overdose of pentobarbitone (210 mg/kg i.p., Vetanarcol, Veterinaria AG, Zürich, Switzerland). Chambers were then taken out of the animal, the vascularized fibrous tissue that had formed around each implant was carefully removed, weighed and the total amount of blood was quantified by colorimetric determination of the haemoglobin concentration.
(§5) After addition of 2 ml of distilled water, tissue samples were homogenised for 1 min at 24000 rpm (Ultra Turrax T25). […] The absorbance at 540 mn (Uvikon 810 P) is proportional to the haemoglobin concentration. […]

[5] = tested on: bFGF induced angiogenesis; experiment: Growth factor impregnated subcutaneous chamber implant angiogenesis model in mice (bFGF); format: in vivo; conditions: 1, 10 and 100 μg/kg/day s.c., chambers removed 5 days after implantation
Description: as §1, §2, §3, §4, §5

**Q.** What does the source list for `O=P(O)(O)C(O)(Cn1ccnc1)P(=O)(O)O` [Zoledronate, 1-hydroxy-2-(imidazol-1-yl)ethane-1,1-diphosphonic acid]?
**A.** IC50 ([1]; read-out: IC50, VEGF-induced HUVEC proliferation): 6.9 ± 0.4 µM; IC50 ([1]; read-out: IC50, bFGF-induced HUVEC proliferation): 4.2 ± 0.4 µM; IC50 ([1]; read-out: IC50, serum-induced HUVEC proliferation): 4.1 ± 0.6 µM; IC50 ([2]; Homo sapiens, A-431, 72 h, read-out: IC50, proliferation of A431): 1.35 µM; effect on HUVEC migration (HUVEC; 30 μM): completely inhibited; effect on HUVEC migration (HUVEC; concentrations of up to 10 μM, basal medium, serum or VEGF): stimulated HUVEC migration

**Q.** With `O=C(O)CN(CCN(CC(=O)O)CC(=O)O)CC(=O)O` [EDTA] as the molecule, how does the “inhibition of HUVEC proliferation induced by FCS” value ([3]; FCS) read?
**A.** Its value is 23.7%.

**Q.** And the “inhibition of HUVEC proliferation induced by VEGF” value ([3]; VEGF)?
**A.** The value was 55.6%.

**Q.** And the “inhibition of HUVEC proliferation induced by bFGF” value ([3]; bFGF)?
**A.** Its value is 49.5%.

**Q.** What about the “inhibition of A431 proliferation” value ([2]; 30 μM) of the same molecule?
**A.** Its value is 8.8%.

**Q.** And the “effect on A431 proliferation in the tested dose range” value ([2]; tested dose range)?
**A.** Its value is “no significant effect”.

**Q.** What about the “effect on HUVEC migration” value (HUVEC) of the same molecule?
**A.** The value was “no consistent effects”.

**Q.** Which results are given for `O=P(O)(O)C(O)(Cn1ccnc1)P(=O)(O)O` [Zoledronic acid, 1-hydroxy-2-(imidazol-1-yl)ethane-1,1-diphosphonic acid]?
**A.** inhibition of the VEGF-induced increase in blood content [4]: significant inhibition; inhibition of the VEGF-induced increase in weight [4]: not in weight; approximate IC50, inhibition of bFGF-induced angiogenic response measured by blood content ([5]; blood content): ~3.1 µg/kg; approximate IC50, inhibition of bFGF-induced angiogenic response measured by weight ([5]; tissue weight): ~2.5 µg/kg

Reference: patent US20020142996A1, “Use of bisphosphonic acids for treating angiogenesis” (priority 1999, published 2002)
